From patent US20090181910A1, “METHOD OF PREVENTION AND ALLEVIATION OF TOXICITY BY MODULATION OF IRF3” (priority 2006, published 2009)

Tested on: CRBPII
Test: RAW 264.7 Q-PCR: CRBPII
Assay type: cell-based, murine
Conditions: RXRα overexpressing RAW 264.7 cells; FIG. 10d

Q: For “polyinosinic:polycytidylic acid [polyI:C]”, which “LG268 induced CRBPII” value is on record?
A: unable to repress LG268 induced CRBPII
